According to patent US8222425B2, “Organic compounds and their uses” (Novartis AG, priority 2007, dated 2012):
≈ marks a conversion by molar mass, not a printed value. Where two headings read alike, the source gives them in different places.

What was measured:
HCV = conditions: ribavirin alone; cited from earlier work
Thermodynamic solubility = assay type: physicochemical; conditions: thermodynamic from solid
Experimental: Thermodynamic solubility for the compounds of the invention listed in Table C is measured by a published literature procedure, e.g., Liping Zhou, et al., J. Pharm. Sci. (2007) 96(11): 3052-3071.
The DMSO stocks of test compounds previously dissolved in 25 μL of DMSO (˜10 mM) in mini-prep vial (MPV: Whatman, with PVDF filter and 0.45 μm pore size) chamber were evaporated via a GeneVac HT-4X evaporator for approximately 1 hour, at the guard temperature of 30° C. An aliquot of 250 μL buffer solution (pH 1.0 or 6.8) was added into each MPV chamber containing powders reconstituted from DMSO stock solutions. The MPV filter plungers were pushed down into the chamber until the membrane of the filter plunger slightly touched the surface of the buffer to promote equilibrium between the two compartments and to minimize the adsorption due to non-specific binding of samples during the subsequent 24-hr incubation (at 600 RPM at room temperature). Immediately after the 24-hr incubation, the plungers were further pushed down to the bottom of the chambers. More solution was pushed through the membrane and entered the plunger compartment. The filter/chamber assemblies were then put on a shaker for another 30 minutes at 600 RPM. Afterwards, filtrates were further diluted (1:10) with 50/50 acetonitrile/water solvent followed by a thorough mixing process. Both plates with diluted and undiluted filtrates were analyzed by HPLC and quantified against the four-point standard dilution curve of the same test compound (5 μM, 35 μM, 65 μM and 100 μM, respectively). In the current study, solubility reflects the average of triplicate samples tested at each pH.

[1] = Pharmacokinetic profile in rats; parameters: species or system Sprague Dawley rats; conditions: rat, in vivo; for Cmax: Sprague Dawley; for Cmax / AUC: po, 10 mg/kg
Experimental: Compounds listed in Table D are administered as a solution orally via gavage at 10 mg/kg to Sprague Dawley rats at a dosing volume of 10 ml/kg. Samples are collected via a surgically implanted cannula at selected timepoints deemed necessary to characterize pharmacokinetic parameters. Blood samples are placed on wet ice and spun down to plasma within 5 minutes of timepoint collection. Plasma samples are frozen until bioanalytical analysis. Compounds listed in Table D are administered intravenously into a surgically implanted cannula as a solution at 1 mg/kg to Sprague Dawley rats at a dosing volume of 1 ml/kg. Samples are collected via another surgically implanted cannula at selected timepoints deemed necessary to characterize pharmacokinetic parameters. Blood samples are placed on wet ice and spun down to plasma within 5 minutes of timepoint collection. Plasma samples are frozen until bioanalytical analysis.

Compound	solubility at 24 h (Thermodynamic solubility; pH 1, simulated gastric fluid) [µM]	solubility at 24 h (Thermodynamic solubility; pH 6.8, aqueous buffer) [µM]	Cmax [1] [nM]	AUC [1] [nM·h/mg/kg]	other results
NC(=O)c1ncn([C@@H]2O[C@H](CO)[C@@H](O)[C@H]2O)n1 [Ribavirin, 1-β-D-ribofuranosyl-1-1,2,4-triazole-3-caroxamide]	–	–	–	–	patients in whom serum amino transferase levels are reduced to normal (HCV): 40%
CCC[C@H](NC(=O)[C@@H]1C[C@@]2(CN1C(=O)[C@@H](NC(=O)[C@@H](NC(=O)[C@@H]1CCN1C(C)C)C1CCCCC1)C(C)(C)C)C(C)(C)C21CCC1)C(=O)C(=O)NC1CC1 [Compound A-62]	930 (≈ 700 µg/mL)	< 5	796	241	Bioavailability [1]: 36 % F
CCCC(NC(=O)[C@@H]1C[C@@]2(CN1C(=O)[C@@H](NC(=O)[C@@H](NC(=O)[C@@H]1CCCN(C(C)C)C1)C1CCCCC1)C(C)(C)C)C(C)(C)C21CCC1)C(=O)C(=O)NC1CC1 (stereo in doubt) [Compound A-4]	630 (≈ 492 µg/mL)	200 (≈ 156 µg/mL)	–	–	–
CCC[C@H](NC(=O)[C@@H]1C[C@@]2(CN1C(=O)[C@@H](NC(=O)[C@@H](NC(=O)[C@H]1CCCN(C)C1)C(C)(C)C)C1CCCCC1)C(C)(C)C21CCC1)C(=O)C(=O)NC1CC1 [Compound A-67]	740 (≈ 557 µg/mL)	690 (≈ 520 µg/mL)	–	–	–
CCC[C@H](NC(=O)[C@@H]1C[C@@]2(CN1C(=O)[C@@H](NC(=O)[C@@H](NC(=O)[C@@H]1CN(C)CCN1C(C)C)C1CCCCC1)C(C)(C)C)C(C)(C)C21CCC1)C(=O)C(=O)NC1CC1 [Compound A-43]	640 (≈ 510 µg/mL)	290 (≈ 231 µg/mL)	–	–	–
CCC[C@H](NC(=O)C1C[C@@]2(CN1C(=O)[C@@H](NC(=O)[C@@H](NC(=O)[C@H]1CCCN1CC)C1CCCCC1)C(C)(C)C)C(C)(C)C21CCC1)C(=O)C(=O)NC1CC1 (stereo partly shown) [Compound A-11]	870 (≈ 655 µg/mL)	92 (≈ 69.3 µg/mL)	–	–	–
CCCC(NC(=O)[C@@H]1C[C@@]2(CN1C(=O)[C@@H](NC(=O)[C@@H](NC(=O)C1CCN1C(C)(C)C)C1CCCCC1)C(C)(C)C)C(C)(C)C21CCC1)C(=O)C(=O)NC1CC1 (stereo partly shown) [Compound A-64]	710 (≈ 545 µg/mL)	< 85	904	274	–
CCC[C@H](NC(=O)[C@@H]1C[C@@]2(CN1C(=O)[C@@H](NC(=O)[C@@H](NC(=O)[C@H]1CCCCN1CC)C(C)(C)C)C(C)(C)C)C(C)(C)C21CCC1)C(=O)C(=O)NC1CC1 [Compound A-72]	840 (≈ 622 µg/mL)	340 (≈ 252 µg/mL)	–	–	–
CCC[C@H](NC(=O)[C@@H]1C[C@@]2(CN1C(=O)[C@@H](NC(=O)[C@@H](NC(=O)[C@@H]1CCCCN1C(C)C)C1CCCCC1)C(C)(C)C)C(C)(C)C21CCC1)C(=O)C(=O)NC(C)C [Compound A-54]	790 (≈ 619 µg/mL)	28 (≈ 21.9 µg/mL)	1430	416	Bioavailability [1]: 28 % F
CCC[C@H](NC(=O)[C@@H]1C[C@@]2(CN1C(=O)[C@@H](NC(=O)[C@@H](NC(=O)[C@H]1CCCCN1C(C)C)C1CCCCC1)C(C)(C)C)C(C)(C)C21CCC1)C(=O)C(=O)NC1CC1 [Compound A-5]	480 (≈ 375 µg/mL)	44 (≈ 34.4 µg/mL)	–	–	–
CCC[C@H](NC(=O)[C@@H]1C[C@@]2(CN1C(=O)[C@@H](NC(=O)[C@@H](NC(=O)[C@H]1CCCN(CC)C1)C(C)(C)C)C(C)(C)C)C(C)(C)C21CCC1)C(=O)C(=O)NC1CC1 [Compound A-59]	840 (≈ 622 µg/mL)	550 (≈ 408 µg/mL)	653	203	–
CCC[C@H](NC(=O)[C@@H]1C[C@@]2(CN1C(=O)[C@@H](NC(=O)[C@@H](NC(=O)[C@@H]1CCN1C(C)C)C(C)(C)C)C(C)(C)C)C(C)(C)C21CCC1)C(=O)C(=O)NC1CC1 [Compound A-73]	810 (≈ 589 µg/mL)	< 5	–	–	–
CCC[C@H](NC(=O)[C@@H]1C[C@@]2(CN1C(=O)[C@@H](NC(=O)[C@@H](NC(=O)[C@@H]1CCCCN1C(C)C)C(C)(C)C)C(C)(C)C)C(C)(C)C21CCC1)C(=O)C(=O)NC1CC1 [Compound A-44]	690 (≈ 521 µg/mL)	64 (≈ 48.3 µg/mL)	1110	523	Bioavailability [1]: 43 % F
CCC[C@H](NC(=O)C1C[C@@]2(CN1C(=O)[C@@H](NC(=O)[C@@H](NC(=O)[C@@H]1CCCN1CC)C1CCCCC1)C(C)(C)C)C(C)(C)C21CCC1)C(=O)C(=O)NC1CC1 (stereo partly shown) [Compound A-10]	910 (≈ 685 µg/mL)	24 (≈ 18.1 µg/mL)	1470	460	Bioavailability [1]: 46 % F
CCC[C@H](NC(=O)[C@@H]1C[C@@]2(CN1C(=O)[C@@H](NC(=O)[C@@H](NC(=O)[C@@H]1CCCCN1C(C)C)C(C)(C)C)C(C)(C)C)C(C)(C)C21CCC1)C(=O)C(=O)NC1CCC1 [Compound A-82]	830 (≈ 638 µg/mL)	< 5	–	–	–
CCC[C@H](NC(=O)[C@@H]1C[C@@]2(CN1C(=O)[C@@H](NC(=O)[C@@H](NC(=O)[C@@H]1CCCN(C)C1)C1CCCCC1)C(C)(C)C)C(C)(C)C21CCC1)C(=O)C(=O)NC1CC1 [Compound A-50]	830 (≈ 625 µg/mL)	240 (≈ 181 µg/mL)	–	–	–
CCC[C@H](NC(=O)[C@@H]1C[C@@]2(CN1C(=O)[C@@H](NC(=O)[C@@H](NC(=O)[C@@H]1CCCN(C)C1)C(C)(C)C)C(C)(C)C)C(C)(C)C21CCC1)C(=O)C(=O)NC1CC1 [Compound A-58]	960 (≈ 698 µg/mL)	930 (≈ 676 µg/mL)	–	–	–
CCC[C@H](NC(=O)[C@@H]1C[C@@]2(CN1C(=O)[C@@H](NC(=O)[C@@H](NC(=O)[C@@H]1CCCN1C)C1CCCCC1)C(C)(C)C)C(C)(C)C21CCC1)C(=O)C(=O)NC1CC1 [Compound A-33]	790 (≈ 584 µg/mL)	110 (≈ 81.3 µg/mL)	–	–	–
CCC[C@H](NC(=O)[C@@H]1C[C@@]2(CN1C(=O)[C@@H](NC(=O)[C@@H](NC(=O)[C@@H]1CCCCN1C(C)C)C1CCCCC1)C(C)(C)C)C(C)(C)C21CCC1)C(=O)C(=O)NC1CC1 [Compound A-6]	930 (≈ 726 µg/mL)	< 5	–	–	–
CCC[C@H](NC(=O)[C@@H]1C[C@@]2(CN1C(=O)[C@@H](NC(=O)[C@@H](NC(=O)[C@@H]1CCCCN1C(C)C)C(C)(C)C)C1CCCCC1)C(C)(C)C21CCC1)C(=O)C(=O)NC1CC1 [Compound A-45]	720 (≈ 562 µg/mL)	< 5	–	–	–
CCC[C@H](NC(=O)[C@@H]1C[C@@]2(CN1C(=O)[C@@H](NC(=O)[C@@H](NC(=O)[C@@H]1CCCN(C)C1)C(C)(C)C)C1CCCCC1)C(C)(C)C21CCC1)C(=O)C(=O)NC1CC1 [Compound A-66]	840 (≈ 633 µg/mL)	600 (≈ 452 µg/mL)	–	–	–
C=C[C@@H]1C[C@]1(NC(=O)[C@@H]1C[C@@]2(CN1C(=O)[C@@H](NC(=O)[C@@H](NC(=O)[C@@H]1CCCCN1C(C)C)C(C)(C)C)C(C)(C)C)C(C)(C)C21CCC1)C(=O)NS(=O)(=O)C1CC1 [Compound A-7]	–	–	–	–	solubility at 24 h (Thermodynamic solubility; aqueous buffer, thermodynamic solubility, buffer pH 6.8, 24-hr incubation at room temperature, read-out: Solubility (pH 6.8)): 840 µM (≈ 673 µg/mL); solubility at 24 h (Thermodynamic solubility; simulated gastric fluid, thermodynamic solubility, buffer pH 1.0, 24-hr incubation at room temperature, read-out: Solubility (pH 1)): 900 µM (≈ 721 µg/mL)
CCC[C@H](NC(=O)[C@@H]1C[C@@]2(CN1C(=O)[C@@H](NC(=O)[C@@H](NC(=O)[C@@H]1CCCN(CC)C1)C1CCCCC1)C(C)(C)C)C(C)(C)C21CCC1)C(=O)C(=O)NC1CC1 [Compound A-15]	700 (≈ 537 µg/mL)	170 (≈ 130 µg/mL)	2030	474	Bioavailability [1]: 42 % F
